Measured values taken from patent publication US4493843A, “Indole and indoline carboxylic acid compounds and method of use” (May & Baker Limited, priority 1980, dated 1985).
Counter-ions that a name gives are not always drawn. Like-named read-outs stand apart in the source and are kept apart here.

Legend:
[1] = test system: serum cholesterol and serum triglycerides; assay: Hypolipidaemic activity in rats (compound in diet, last 7 of 10 days); format: in vivo, Male Wistar rats; conditions: Rattus norvegicus, po, 168 h, 7 days; for change in vivo at 0.2 % strength: 0.2 % w/w dose in diet; for change in vivo at 0.03 % strength: 0.03 % w/w dose in diet; for change in vivo at 0.1 % strength: 0.1 % w/w dose in diet
Protocol: Hypolipidaemic Activity in Rats
Male Wistar rats each weighing between 120 and 150 g were caged in groups of eight and fed a powdered diet for 10 days. For the last 7 days of that period the test compound was administered orally by mixing the compound in the diet and allowing the animals to feed normally. Food consumption was measured on day 9 for each group.
At noon on day 10 the animals were killed by inhalation of carbon dioxide from solid carbon dioxide. A sample of blood was removed by cardiac puncture and the serum cholesterol and serum triglycerides were analysed by means of an autoanalyser.
Control groups (receiving only the normal, unmedicated diet) were included with each test.
The percentage reductions in the concentrations of serum cholesterol and serum triglycerides were calculated by comparison with the simultaneous controls, for each concentration of the test compound used.

[2] = test system: serum glucose; assay: Hypoglycaemic activity in diabetic mice; format: in vivo, Diabetic mice (strain C 57, black, MRI derived Obese/Obese); conditions: 200 mg/kg body weight per day orally for 3 days; 3 hours after last dose
Protocol: Hypoglycaemic Activity in Diabetic Mice
Diabetic mice (strain C 57, black, MRI derived Obese/Obese) of either sex each weighting between 45 and 70 g were given the test compound orally at a dose of 200 mg/kg body weight per day for 3 days. Three hours after the last dose the animals were weighed, anaesthetised with carbon dioxide and bled by cardiac puncture.
The serum glucose levels were assessed by the glucose-oxidase method of God-Perid.
Control groups (given doses of unmedicated tragacanth mucilage) were included with each test.
The percentage reduction in the concentration of serum glucose was calculated by comparison with the simultaneous controls, for each of the test compounds used.

[3] = test system: Smooth muscle cells from explants of pig thoracic aorta; assay: Aortic smooth muscle cell proliferation inhibiting activity; format: cell-based; conditions: Sus scrofa, 168 h, 5 μg/ml medium; six or seven day incubation; each value mean of four dishes
Protocol: Aortic smooth muscle cell proliferation inhibiting activity
Smooth muscle cells were grown in culture from explants of pig thoracic aorta, using Dulbecco's Modified Eagles (DME) Medium containing 20% foetal calf serum (FCS) and antibiotics. The cells were incubated at 37° C. in an atmosphere of 95% air and 5% carbon dioxide. At confluency the cells were routinely subcultured by trypsinising and replating at approximately one third of their confluent density in DME Medium containing 10% FCS and antibiotics.
The smooth muscle cells were plated out at densities of 100,000-200,000 cells per 35×10 mm Falcon dish in 2 ml DME Medium containing 10% FCS and antibiotics. After 24 hours, when the cells had attached to the dishes, the medium was replaced with 2 ml DME Medium containing 1% FCS and antibiotics. The cultures were incubated for a further three days to allow the cells to become quiescent (i.e. no longer undergoing cell division). The medium was then replaced by 2 ml control or test medium. The test medium consisted of DME Medium (containing 10% FCS and antibiotics) and the compound to be tested at a concentration of 5 μg/ml medium. The compounds were pre-dissolved in acetone such that the final concentration of acetone in the medium was 0.2% (v/v). The control medium consisted of DME Medium (containing 10% FCS and antibiotics) and acetone at 0.2% (v/v) concentration. After three days incubation in test or control medium, the medium was replaced with fresh test or control medium and the cells incubated for a further three or four days. At the end of the six or seven day incubation period cell numbers were determined by trypsinising the cells and counting the cell suspension in a Coulter counter.
All results in Table II hereafter represent the mean value for four dishes of cells. Percentage inhibition of proliferation was calculated using the following formula: [formula] where S=Mean cell number per dish at start of experiment (upon addition of control or test medium).
T=Mean cell number per dish in test cultures at completion of experiment.
C=Mean cell number per dish in control cultures at completion of experiment.

[4] = read-out: % change in serum cholesterol compared with control
[5] = read-out: % change in serum triglycerides compared with control

| Structure (SMILES) | change in vivo at 0.2 % strength [1, 4] | change in vivo at 0.2 % strength [1, 5] | also measured |
| --- | --- | --- | --- |
| CCCCCCCCCCCC1CNc2cc(C(=O)O)ccc21 (racemic) [Compound BXX, (RS)-3-(n-undecyl)indoline-6-carboxylic acid] | -10% | -39% | % change in serum glucose compared with control [2]: -9% |
| CCCCCCCc1cc2ccc(C(=O)OCC)cc2[nH]1 [Compound AJJ, ethyl 2-(n-heptyl)indole-6-carboxylate] | -8% | 6% | inhibition at 5 µg/mL [3]: 45% |
| CCCCCCCc1cc2cc(C(=O)OC)ccc2[nH]1 [Compound ASS, methyl 2-(n-heptyl)indole-5-carboxylate] | -2% | -20% | inhibition at 5 µg/mL [3]: 36% |
| CCCCCCCCCCCc1[nH]c2ccc(C(=O)O)cc2c1C [Compound CQQ, 2-(n-undecyl)-3-methylindole-5-carboxylic acid] | – | – | % change in serum glucose compared with control [2]: -40% |
| CCCCCCCCCCCCCCCc1cc2cc(C(=O)O)ccc2[nH]1 [Compound G, 2-(n-pentadecyl)indole-5-carboxylic acid] | – | – | change in vivo at 0.03 % strength [1, 4]: -7%; change in vivo at 0.03 % strength [1, 5]: -41%; inhibition at 5 µg/mL [3]: 51% |
| CCCCCCCCCCCCCCc1cc2cc(C(=O)O)ccc2[nH]1 [Compound NN, 2-(n-tetradecyl)indole-5-carboxylic acid] | -39% | -73% | inhibition at 5 µg/mL [3]: 76% |
| CCCCCCCCCCCCCCCCCCCc1cc2cc(C(=O)O)ccc2[nH]1 [Compound PP, 2-(n-nonadecyl)indole-5-carboxylic acid] | -13% | -41% | – |
| CCCCCCCc1cc2cc(C(=O)O)ccc2[nH]1 [Compound Q, 2-(n-heptyl)indole-5-carboxylic acid] | -10% | -14% | – |
| CCCCCCCCCCCCCCCCCCCCCCCc1cc2cc(C(=O)O)ccc2[nH]1 [Compound QQ, 2-(n-tricosyl)indole-5-carboxylic acid] | -16% | -36% | – |
| CCCCCCCc1cc2ccc(C(=O)O)cc2[nH]1 [Compound R, 2-(n-heptyl)indole-6-carboxylic acid] | -12% | -18% | – |
| CCCCCCCCCCCCc1cc2ccc(C(=O)O)cc2[nH]1 [Compound S, 2-(n-dodecyl)indole-6-carboxylic acid] | -26% | -52% | – |
| CCCCCCCCCCCCCCc1cc2ccc(C(=O)O)cc2[nH]1 [Compound SS, 2-(n-tetradecyl)indole-6-carboxylic acid] | -14% | 3% | – |
| CCCCCCCCCCCCCCCCCCc1cc2cc(C(=O)O)ccc2[nH]1 [Compound T, 2-(n-octadecyl)indole-5-carboxylic acid] | -43% | -67% | change in vivo at 0.1 % strength [1, 4]: -45%; change in vivo at 0.1 % strength [1, 5]: -78%; inhibition at 5 µg/mL [3]: 30% |
| CCCCCCCCCCCCCCCCc1cc2ccc(C(=O)O)cc2[nH]1 [Compound TT, 2-(n-hexadecyl)indole-6-carboxylic acid] | -8% | -6% | inhibition at 5 µg/mL [3]: 61% |
| CCCCCCCCCCCc1cc2cc(C(=O)OCC)ccc2[nH]1 [Compound U, ethyl 2-(n-undecyl)indole-5-carboxylate] | -13% | -39% | – |
| CCCCCCCCCCCCCCCCCCCCc1cc2ccc(C(=O)O)cc2[nH]1 [Compound UU, 2-(n-eicosyl)indole-6-carboxylic acid] | -15% | -29% | – |
| CCCCCCCCCCCCCCCCCCc1cc2ccc(C(=O)O)cc2[nH]1 [Compound V, 2-(n-octadecyl)indole-6-carboxylic acid] | 3% | -1% | – |
| CCCCCCCCCCCc1cc2c(C(=O)O)cccc2[nH]1 [Compound W, 2-(n-undecyl)indole-4-carboxylic acid] | -3% | 22% | – |
| CCCCCCCCCc1cc2cccc(C(=O)O)c2[nH]1 [Compound WW, 2-(n-nonyl)indole-7-carboxylic acid] | -3% | 45% | – |
| CCCCCCCCc1cc2cc(C(=O)O)ccc2[nH]1 [Compound X, 2-(n-octyl)indole-5-carboxylic acid] | -18% | -25% | – |
| CCCCCCCCCCCc1cc2cccc(C(=O)O)c2[nH]1 [Compound XX, 2-(n-undecyl)indole-7-carboxylic acid] | -2% | 8% | – |
| CCCCCCCCCCCCc1cc2cc(C(=O)O)ccc2[nH]1 [Compound Y, 2-(n-dodecyl)indole-5-carboxylic acid] | -30% | -80% | change in vivo at 0.1 % strength [1, 4]: -20%; change in vivo at 0.1 % strength [1, 5]: -51% |
| CCCCCCCCCc1cc2c(C(=O)O)cccc2[nH]1 [Compound Z, 2-(n-nonyl)indole-4-carboxylic acid] | -14% | -14% | – |
| CCCCCCCCCCCCCCCc1cc2ccc(C(=O)O)cc2[nH]1 [D sodium salt] | – | – | change in vivo at 0.1 % strength [1, 4]: -10%; change in vivo at 0.1 % strength [1, 5]: -18% |
